Experiments:
false cleavers = assay: Test Example 5: herbicidal effect by foliage application, plastic box (Table 20, symbol Q); format: in vivo, false cleavers (Galium spurium); conditions: foliage application, AAH 320 g/ha, evaluated three weeks after application
Procedure, shortened: (§1)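 Foliar spray test: emulsion formulation diluted in water to a set application rate, sprayed onto 14-day-old plants raised in diluvial soil at 25° C to 30° C under glass. Both herbicidal effect and crop effect rated visually three weeks later.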

barnyard grass [1] = assay: Test Example 4: herbicidal effect by soil treatment (Table 19, symbol H); format: in vivo, barnyard grass (Echinochloa crus-galli); conditions: amount of applied herbicide 320 g/ha
Procedure, shortened: (§2)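 Step 1: sow seeds in sterilized diluvial soil, cover ~1.5 cm. Step 2: spray diluted emulsion onto soil surface at predetermined rate. Step 3: greenhouse, 25–30° C, three weeks. Step 4: grade effect on each plant by earlier criteria.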

velvetleaf [2] = assay: Test Example 5: herbicidal effect by foliage application, plastic box (Table 20, symbol M); format: in vivo, velvetleaf (Abutilon theophrasti); conditions: foliage application, AAH 320 g/ha, evaluated three weeks after application
Procedure, shortened: as §1

windgrass [3] = assay: Test Example 4: herbicidal effect by soil treatment (Table 19, symbol L); format: in vivo, windgrass (Apera spica-venti); conditions: amount of applied herbicide 320 g/ha
Procedure, shortened: as §2

green foxtail [4] = assay: Test Example 5: herbicidal effect by foliage application, plastic box (Table 20, symbol G); format: in vivo, green foxtail (Setaria viridis); conditions: foliage application, AAH 320 g/ha, evaluated three weeks after application
Procedure, shortened: as §1

lambsquarters [5] = assay: Test Example 5: herbicidal effect by foliage application, plastic box (Table 20, symbol O); format: in vivo, lambsquarters (Chenopodium album); conditions: foliage application, AAH 320 g/ha, evaluated three weeks after application
Procedure, shortened: as §1

Chinese sprangletop = assay: Test Example 3: herbicidal effect by foliage application, Wagner pot (Table 18, symbol D); format: in vivo, chinese sprangletop (Leptochloa chinensis); conditions: amount of applied herbicide 320 g/ha
Procedure, shortened: (§3)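 Plants were sown in alluvial soil held under 0.1–0.5 cm standing water and grown 14 days in a greenhouse at 25–30 °C. An emulsifiable formulation, water-diluted to the set dose, was then sprayed onto the foliage, and effects were scored three weeks later using previously defined criteria.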

southern crabgrass [6] = assay: Test Example 4: herbicidal effect by soil treatment (Table 19, symbol F); format: in vivo, southern crabgrass (Digitaria ciliaris); conditions: amount of applied herbicide 320 g/ha
Procedure, shortened: as §2

windgrass [7] = assay: Test Example 5: herbicidal effect by foliage application, plastic box (Table 20, symbol L); format: in vivo, windgrass (Apera spica-venti); conditions: foliage application, AAH 320 g/ha, evaluated three weeks after application
Procedure, shortened: as §1

wild oat [8] = assay: Test Example 4: herbicidal effect by soil treatment (Table 19, symbol I); format: in vivo, wild oat (Avena fatua); conditions: amount of applied herbicide 320 g/ha
Procedure, shortened: as §2

blackgrass [9] = assay: Test Example 4: herbicidal effect by soil treatment (Table 19, symbol J); format: in vivo, blackgrass (Alopecurus myosuroides); conditions: amount of applied herbicide 320 g/ha
Procedure, shortened: as §2

Italian ryegrass [10] = assay: Test Example 4: herbicidal effect by soil treatment (Table 19, symbol K); format: in vivo, Italian ryegrass (Lolium multiflorum); conditions: amount of applied herbicide 320 g/ha
Procedure, shortened: as §2

redroot pigweed [11] = assay: Test Example 4: herbicidal effect by soil treatment (Table 19, symbol N); format: in vivo, redroot pigweed (Amaranthus retroflexus); conditions: amount of applied herbicide 320 g/ha
Procedure, shortened: as §2

Italian ryegrass [12] = assay: Test Example 5: herbicidal effect by foliage application, plastic box (Table 20, symbol K); format: in vivo, Italian ryegrass (Lolium multiflorum); conditions: foliage application, AAH 320 g/ha, evaluated three weeks after application
Procedure, shortened: as §1

blackgrass [13] = assay: Test Example 5: herbicidal effect by foliage application, plastic box (Table 20, symbol J); format: in vivo, blackgrass (Alopecurus myosuroides); conditions: foliage application, AAH 320 g/ha, evaluated three weeks after application
Procedure, shortened: as §1

velvetleaf [14] = assay: Test Example 4: herbicidal effect by soil treatment (Table 19, symbol M); format: in vivo, velvetleaf (Abutilon theophrasti); conditions: amount of applied herbicide 320 g/ha
Procedure, shortened: as §2

redroot pigweed [15] = assay: Test Example 5: herbicidal effect by foliage application, plastic box (Table 20, symbol N); format: in vivo, redroot pigweed (Amaranthus retroflexus); conditions: foliage application, AAH 320 g/ha, evaluated three weeks after application
Procedure, shortened: as §1

barnyard grass [16] = assay: Test Example 3: herbicidal effect by foliage application, Wagner pot (Table 18, symbol H); format: in vivo, barnyard grass (Echinochloa crus-galli); conditions: amount of applied herbicide 320 g/ha
Procedure, shortened: as §3

green foxtail [17] = assay: Test Example 4: herbicidal effect by soil treatment (Table 19, symbol G); format: in vivo, green foxtail (Setaria viridis); conditions: amount of applied herbicide 320 g/ha
Procedure, shortened: as §2

chickweed [18] = assay: Test Example 5: herbicidal effect by foliage application, plastic box (Table 20, symbol P); format: in vivo, common chickweed (Stellaria media); conditions: foliage application, AAH 320 g/ha, evaluated three weeks after application
Procedure, shortened: as §1

persian speedwell [19] = assay: Test Example 5: herbicidal effect by foliage application, plastic box (Table 20, symbol R); format: in vivo, Persian speedwell (Veronica persica); conditions: foliage application, AAH 320 g/ha, evaluated three weeks after application
Procedure, shortened: as §1

southern crabgrass [20] = assay: Test Example 5: herbicidal effect by foliage application, plastic box (Table 20, symbol F); format: in vivo, southern crabgrass (Digitaria ciliaris); conditions: foliage application, AAH 320 g/ha, evaluated three weeks after application
Procedure, shortened: as §1

barnyard grass [21] = assay: Test Example 5: herbicidal effect by foliage application, plastic box (Table 20, symbol H); format: in vivo, barnyard grass (Echinochloa crus-galli); conditions: foliage application, AAH 320 g/ha, evaluated three weeks after application
Procedure, shortened: as §1

persian speedwell [22] = assay: Test Example 4: herbicidal effect by soil treatment (Table 19, symbol R); format: in vivo, Persian speedwell (Veronica persica); conditions: amount of applied herbicide 320 g/ha
Procedure, shortened: as §2

chickweed [23] = assay: Test Example 4: herbicidal effect by soil treatment (Table 19, symbol P); format: in vivo, common chickweed (Stellaria media); conditions: amount of applied herbicide 320 g/ha
Procedure, shortened: as §2

lambsquarters [24] = assay: Test Example 4: herbicidal effect by soil treatment (Table 19, symbol O); format: in vivo, lambsquarters (Chenopodium album); conditions: amount of applied herbicide 320 g/ha
Procedure, shortened: as §2

wild oat [25] = assay: Test Example 5: herbicidal effect by foliage application, plastic box (Table 20, symbol I); format: in vivo, wild oat (Avena fatua); conditions: foliage application, AAH 320 g/ha, evaluated three weeks after application
Procedure, shortened: as §1

Cc1nn(C)c(=O)c(-c2c(-c3ccc(S(=O)(=O)C(C)C)cc3)sc3ccc(F)cc23)c1O [2-259]
Q: false cleavers, herbicidal effect (criteria 0-5) (false cleavers): 4 (Herbicidal rate of 70% or more and less than 90%) | herbicidal effect on H: barnyard grass (barnyard grass [1]): 0 (Herbicidal rate of 5% or less (almost no effect)) | M: velvetleaf, herbicidal effect (criteria 0-5) (velvetleaf [2]): 4 (Herbicidal rate of 70% or more and less than 90%) | herbicidal effect on L: windgrass (windgrass [3]): 0 (Herbicidal rate of 5% or less (almost no effect)) | G: green foxtail, herbicidal effect (criteria 0-5) (green foxtail [4]): 3 (Herbicidal rate of 40% or more and less than 70%) | O: lambsquarters, herbicidal effect (criteria 0-5) (lambsquarters [5]): 4 (Herbicidal rate of 70% or more and less than 90%) | herbicidal effect on D: Chinese sprangletop (Chinese sprangletop): 3 (Herbicidal rate of 40% or more and less than 70%) | herbicidal effect on F: southern crabgrass (southern crabgrass [6]): 0 (Herbicidal rate of 5% or less (almost no effect)) | L: windgrass, herbicidal effect (criteria 0-5) (windgrass [7]): 1 (Herbicidal rate of 5% or more and less than 20%) | herbicidal effect on I: wild oat (wild oat [8]): 0 (Herbicidal rate of 5% or less (almost no effect)) | herbicidal effect on J: blackgrass (blackgrass [9]): 4 (Herbicidal rate of 70% or more and less than 90%) | herbicidal effect on K: Italian ryegrass (Italian ryegrass [10]): 4 (Herbicidal rate of 70% or more and less than 90%) | herbicidal effect on N: redroot pigweed (redroot pigweed [11]): 4 (Herbicidal rate of 70% or more and less than 90%) | K: Italian ryegrass, herbicidal effect (criteria 0-5) (Italian ryegrass [12]): 4 (Herbicidal rate of 70% or more and less than 90%) | J: blackgrass, herbicidal effect (criteria 0-5) (blackgrass [13]): 4 (Herbicidal rate of 70% or more and less than 90%) | herbicidal effect on M: velvetleaf (velvetleaf [14]): 3 (Herbicidal rate of 40% or more and less than 70%) | N: redroot pigweed, herbicidal effect (criteria 0-5) (redroot pigweed [15]): 5 (Herbicidal rate of 90% or more (almost completely withered)) | herbicidal effect on H: barnyard grass (barnyard grass [16]): 4 (Herbicidal rate of 70% or more and less than 90%) | herbicidal effect on G: green foxtail (green foxtail [17]): 1 (Herbicidal rate of 5% or more and less than 20%) | P: chickweed, herbicidal effect (criteria 0-5) (chickweed [18]): 5 (Herbicidal rate of 90% or more (almost completely withered)) | R: persian speedwell, herbicidal effect (criteria 0-5) (persian speedwell [19]): 5 (Herbicidal rate of 90% or more (almost completely withered)) | F: southern crabgrass, herbicidal effect (criteria 0-5) (southern crabgrass [20]): 4 (Herbicidal rate of 70% or more and less than 90%) | H: barnyard grass, herbicidal effect (criteria 0-5) (barnyard grass [21]): 3 (Herbicidal rate of 40% or more and less than 70%) | herbicidal effect on R: persian speedwell (persian speedwell [22]): 5 (Herbicidal rate of 90% or more (almost completely withered)) | herbicidal effect on P: chickweed (chickweed [23]): 1 (Herbicidal rate of 5% or more and less than 20%) | herbicidal effect on O: lambsquarters (lambsquarters [24]): 3 (Herbicidal rate of 40% or more and less than 70%) | I: wild oat, herbicidal effect (criteria 0-5) (wild oat [25]): 4 (Herbicidal rate of 70% or more and less than 90%)

— patent US20230085307A1, “PYRIDAZINONE COMPOUND AND HERBICIDE” (NISSAN CHEMICAL CORPORATION, priority 2019, published 2023)
